Several values for one entry are separate records, joined by “and”; a condition that tells them apart may be missing. Identical values can stand only once.
Experiments:
[1] = target: T1, D-AAO (Sus scrofa, UniProt P00371); test: D-AAO/HRP microplate test for detection of D-amino acids; format: biochemical, swine
T1 construct: purchased Sigma A-5222; host or cells: swine kidney
Experimental: (§1) • (3) Prepare a mixture containing the enzymes (D-AAO/HRP Mix), as follows: The amounts are given for one well, provided that the final volume will be 100 μl with the racemase products or the substrate:
(§2) This mixture is kept in the ice until use. • (4) The quantitation reaction starts when 13 μl of D-AAO/HRP mix is added to the reaction well. • (5) The microplate is covered with an adhesive coverlid and it is left in the dark at 37° C. between […] and 2 hours. The reaction can be monitored by eye whenever a color gradient matches the D-amino acid concentration of the standard dilutions. • (6) The microplate is read with a microplate spectrophotometer using a filter of at 490 nm.
The D-AAO/HRP test described here above can also be used for this purpose with slight modifications. For that purpose, the racemase reaction step should be skipped and the microplate test should start straightforward at the II-1-2.1-2 step described above with the following remarks:
1) Standard: It should not be an equimolar mixture of D- and L-amino acid, but rather a serial dilution of D-Amino acids. The choice of amino acid is made according to the interest of the D-amino acid under investigation. The final volume in wells should be of 87 μl.
2) Negative control: It is made with the L-enantiomer of the D-amino acid under investigation. The final volume should be 87 μl.
3) Blank: It is made with 87 μl buffer*. (See paragraph II.1.1 Materials.)
4) Samples: The samples to be tested should be adjusted to pH 8,3 with buffer* and their final volumes should be of 87 μl per well.
Obs: Standards, negative controls, samples to test and blanks should be made in duplicates. They are dispensed into the wells of the microplate.
5) Then, the procedure follows steps 3) to 6), as above.
Different L- and D-amino acids were tested, namely Tyrosine (Tyr), Valine (Val), Threonine (Thr), Glutamic acid (Glu), Lysine (Lys) and Tryptophan (Try).

[2] = target: T1, D-AAO; test: D-AAO/HRP reaction on D-proline in presence of PAC or L-proline; format: biochemical, swine; conditions: D-Proline 0.1 mM to 40 mM, OD 490 nm
[3] = test system: non-infected monkey cell cultures
[4] = test system: B cell; conditions: cited from earlier work
[5] = target: rTcPRACB (Trypanosoma cruzi, UniProt Q868H8); test: Kinetic and inhibition assays of L-proline racemization, polarimetric; format: biochemical
Sequence of rTcPRACB (Q868H8 whole entry): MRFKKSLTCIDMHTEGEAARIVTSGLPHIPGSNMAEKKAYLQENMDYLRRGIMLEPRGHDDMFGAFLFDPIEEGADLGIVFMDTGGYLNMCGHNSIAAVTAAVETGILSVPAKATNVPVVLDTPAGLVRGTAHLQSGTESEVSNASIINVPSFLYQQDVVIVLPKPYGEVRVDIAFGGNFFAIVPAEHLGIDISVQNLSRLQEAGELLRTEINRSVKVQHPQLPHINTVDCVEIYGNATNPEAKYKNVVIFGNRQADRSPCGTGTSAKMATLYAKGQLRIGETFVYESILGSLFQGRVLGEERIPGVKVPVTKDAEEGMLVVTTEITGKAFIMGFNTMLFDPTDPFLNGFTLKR
Experimental: (§3) The progress of racemization reaction was monitored polarimetrically, as previously described (13). […] Values obtained were confirmed by using the Kaleïdagraph® program and Michaelis-Menten equation. […] C.
(§4) Optical rotation was measured every 5 sec during 10 min and every 5 min to 1 hour. […] Calculations were done using the Kaleïdagraph program. […] Graphic representation and linear curve regression allowed the determination of Ki as [PAC]/[(slope with PAC/slope without PAC)−1]. All reagents were purchased from Sigma.

[6] = target: T2, rTcPRACA (Trypanosoma cruzi, UniProt Q4DA80); test: as above; format: biochemical
T2 construct: resulting TcPRACA* fragment encoding for the mature proline racemase was purified and cloned; His6 (C); made in house; host or cells: E. coli BL21 (DE3)
Experimental: as §3, §4

[7] = target: T3, TcPRAC (Trypanosoma cruzi, UniProt Q4DA80); test: D-AAO/HRP microplate test of racemisation inhibition; format: biochemical; conditions: concentration giving 50% inhibition of racemisation
T3 construct: made in house
Experimental: (1) The volumes are indicated for a single well, but duplicates are mandatory. Leave enough raws of the microplate empty for standard and controls to be used in further steps. Distribute the following volumes per well reactions: • a) without inhibitor (Vol=QS 81 μl)
A range of concentrations between 5 mM and 1 mM can be planned for the inhibitor. It should be diluted in sodium acetate buffer 0.2 M pH 6.0.
• (2) Cover the microplate with an adhesive coverlid and leave for […] at 37° C. • (3) At the end of racemisation, 5.5 μl of 0.235M Pop are added in each reaction well of the microplate in order to shift pH from pH6.0 to pH 8.3.
It is used for assessing the amount of D-Proline formed after racemization. The standard range is made in microtubes, as follows:
as §1, §2

[8] = target: T3, TcPRAC; test: Racemisation inhibition, detection with polarimeter; format: biochemical
Experimental: (§5) The reaction was stopped by incubating for 10 min at 80° C. and freezing. Water (1 ml) was then added, and the optical rotation was measured in a polarimeter 241 MC (Perkin Elmer, Montigny le Bretonneux, France) at a wavelength of 365 nm, in a cell with a path length of 10 cm, at a precision of 0.001 degree. […] All reagents were purchased from Sigma.

[9] = target: T3, TcPRAC; conditions: cited from earlier work
[10] = Racemization assays, polarimetric; format: biochemical; conditions: for % racemization / Optical rotation: 5 μg protein, 40 mM L-proline, pH 6.0, 37° C.
Experimental: as §5
Optical rotation was measured and % of racemization was determined as described in Example 5.
Optical rotation was measured at different times and % of racemization was determined as described in Example 5.

[11] = Stability of recombinant proline racemases under different storage conditions; format: physicochemical
Experimental: After purification on nickel-nitrilotriacetic acid agarose column, recombinant proteins were kept for 10 days in nickel column buffer (20 mM Tris/500 mM NaCl/500 mM imidazol, pH 8.0) at room temperature (RT) or at +4° C., or either diluted in 50% glycerol and maintained at −20° C. (Gly/−20° C.) or in optimum pH buffer (NaOAc, pH 6.0) at 4° C. Recombinant enzymes were precipitated in (NH4)2SO4 and kept in solution at 4° C. or pellet dried at −20° C. Racemase assays were performed for 30 min at 37° C.

[12] = test system: Trypanosoma cruzi; test: Immunization of mice and infectious challenge with live Trypanosoma cruzi; format: in vivo; conditions: mice, sub-mitogenic doses
[13] = D-enantiomers, 6.25 mM, duplicate wells
[14] = L-enantiomers, 12.5 mM, duplicate wells

T1 sequence (P00371 whole entry): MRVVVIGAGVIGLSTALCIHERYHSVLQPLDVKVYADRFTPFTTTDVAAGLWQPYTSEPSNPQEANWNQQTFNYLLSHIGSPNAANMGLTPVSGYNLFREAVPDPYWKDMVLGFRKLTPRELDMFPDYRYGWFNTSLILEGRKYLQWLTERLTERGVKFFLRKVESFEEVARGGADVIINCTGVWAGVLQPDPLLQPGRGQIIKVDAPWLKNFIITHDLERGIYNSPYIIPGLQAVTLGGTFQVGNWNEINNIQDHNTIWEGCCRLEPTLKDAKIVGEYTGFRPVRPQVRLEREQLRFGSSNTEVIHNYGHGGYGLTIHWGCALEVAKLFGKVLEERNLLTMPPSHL

With N[C@@H](CCC(=O)O)C(=O)O [D-Glu, Glutamic acid] the “Optical density at 490 nm” value [1, 13] was 0.147 and 0.116.

With NCCCC[C@H](N)C(=O)O [D-Lys, Lysine] the “Optical density at 490 nm” value [1, 13] was 0.243 and 0.157.

In the case of C[C@@H](O)[C@H](N)C(=O)O [D-Thr, Threonine], the “Optical density at 490 nm” value [1, 13] is reported as 0.215 and 0.157.

For N[C@@H](Cc1c[nH]c2ccccc12)C(=O)O [D-Try, Tryptophan], the “Optical density at 490 nm” value [1, 13] was 0.615 and 0.662.

With N[C@@H](Cc1ccc(O)cc1)C(=O)O [D-Tyr, Tyrosine] the “Optical density at 490 nm” value [1, 13] was 1.317 and 0.991.

With CC(C)[C@H](N)C(=O)O [D-Val, Valine] the “Optical density at 490 nm” value [1, 13] was 1.683 and 1.612.

In the case of O=C(O)[C@H]1CCCN1 [D-pro, D-proline], the “Optical density at 490 nm” value ([1]; 0.05 mM) is reported as 0.173, the “Optical density at 490 nm” value ([1]; 0.09 mM) is reported as 0.213 and 0.215 and the “Optical density at 490 nm” value ([1]; 0.19 mM) is reported as 0.308 and 0.32. The “Optical density at 490 nm” value ([1]; 0.39 mM) was 0.496 and 0.504, the “Optical density at 490 nm” value ([1]; 0.77 mM) was 0.809 and 0.824 and the “Optical density at 490 nm” value ([1]; 1.55 mM) was 1.234 and 1.221. The “Optical density at 490 nm” value ([1]; 3.09 mM) was 1.716 and 1.879, the “Optical density at 490 nm” value ([1]; 6.19 mM) was 1.983 and 1.949 and the “Optical density at 490 nm” value ([1]; 12.37 mM) was 1.814 and 1.976. For the same molecule, the “Optical density at 490 nm” value ([1]; 24.75 mM) was 1.757 and 1.885 and the “Optical density at 490 nm” value ([1]; 49.5 mM) was 1.961 and 2.004.

For N[C@@H](CCC(=O)O)C(=O)O [L-Glu, Glutamic acid], the “Optical density at 490 nm” value [1, 14] was 0.131 and 0.141.

With NCCCC[C@H](N)C(=O)O [L-Lys, Lysine] the “Optical density at 490 nm” value [1, 14] was 0.125 and 0.131.

With C[C@@H](O)[C@H](N)C(=O)O [L-Thr, Threonine] the “Optical density at 490 nm” value [1, 14] was 0.124 and 0.128.

For N[C@@H](Cc1c[nH]c2ccccc12)C(=O)O [L-Try, Tryptophan], the “Optical density at 490 nm” value [1, 14] was 0.131 and 0.138.

In the case of N[C@@H](Cc1ccc(O)cc1)C(=O)O [L-Tyr, Tyrosine], the “Optical density at 490 nm” value [1, 14] is reported as 0.193 and 0.141.

For CC(C)[C@H](N)C(=O)O [L-Val, Valine], the “Optical density at 490 nm” value [1, 14] was 0.135 and 0.129.

In the case of O=C(O)c1ccc[nH]1 [PAC, pyrrole-2-carboxylic acid], the “influence on DAAO/HRP reaction” value [2] is given as “does not influence”, the “interference with cellular growth” value [3] is given as “do not interfere with cellular growth” and the “effect of TcPRAC inhibition on TcPRAC B cell mitogenic ability” value [4] is given as “total loss”. The Ki [5] was 3.6 µM, the Ki [6] was 5.7 µM and the IC50 ([7]; 10 mM L-Proline) was 45 µM and 50 µM. The IC50 ([7]; 20 mM L-Proline) was 170 µM, the IC50 ([7]; 40 mM L-Proline) was 220 µM and the IC50 [8] was 1000 µM.

In the case of NC(=O)CI [iodoacetamide], the “TcPRAC enzymatic activity after alkylation” value [9] is given as “abolished”.

In the case of O=C(O)CI [iodoacetate], the “TcPRAC enzymatic activity after alkylation” value [9] is given as “abolished”.

B1: rTcPRACA: recombinant C-terminal His6-tagged T. cruzi proline racemase, 45 kDa secreted isoform, produced in E. coli (protein)
chain: GQEKLLFDQKYKIIKGEKKEKKKNQRANRREHQQKREIMRFKKSFTCIDMHTEGEAARIVTSGLPHIPGSNMAEKKAYLQENMDYLRRGIMLEPRGHDDMFGAFLFDPIEEGADLGMVFMDTGGYLNMCGHNSIAAVTAAVETGIVSVPAKATNVPVVLDTPAGLVRGTAHLQSGTESEVSNASIINVPSFLYQQDVVVVLPKPYGEVRVDIAFGGNFFAIVPAEQLGIDISVQNLSRLQEAGELLRTEINRSVKVQHPQLPHINTVDCVEIYGPPTNPEANYKNVVIFGNRQADRSPCGTGTSAKMATLYAKGQLRIGETFVYESILGSLFQGRVLGEERIPGVKVPVTKDAEEGMLVVTAEITGKAFIMGFNTMLFDPTDPFKNGFTLKQ
modifications: left off: small tags and cut ends
notes: recombinant C-terminal His6-tagged T. cruzi proline racemase, 45 kDa secreted isoform, produced in E. coli
For B1, the “temperature of maximal enzyme activity” value [10] was 37 °C, the “% racemization” value ([10]; 0 min) was 0% and the Optical rotation ([10]; 0 min) was −0.385. The “enzyme activity after heating” value ([10]; 5 min at 80° C.) was “abolished”, the “% racemization” value ([10]; 10 min) was 22% and the Optical rotation ([10]; 10 min) was −0.300. The “% racemization” value ([10]; 30 min) was 58%, the Optical rotation ([10]; 30 min) was −0.162 and the “% racemization” value ([10]; 60 min) was 77%. For the same molecule, the Optical rotation ([10]; 60 min) was −0.088, the “% of preservation of proline racemase activity” value ([11]; 10 days, 50% glycerol, −20° C. (Gly/−20° C.)) was 62.9% and the “% of preservation of proline racemase activity” value ([11]; 10 days, NaOAc pH 6, 4° C.) was 31.0%. For the same molecule, the “% of preservation of proline racemase activity” value ([11]; 10 days, column buffer pH 8.0, +4° C.) was 65% and 66.5%, the “% of preservation of proline racemase activity” value ([11]; 10 days, column buffer pH 8.0, RT) was 16.0% and the loss of activity ([11]; 10 days, room temperature, 0.5 M imidazol buffer pH 8.0) was 84%. The “% of preservation of proline racemase activity” value ([11]; (NH4)2SO4 precipitated, in solution, 4° C.) was 53.9%, the “% of preservation of proline racemase activity” value ([11]; (NH4)2SO4 precipitated, pellet dried, −20° C.) was 100.0% and the “% of preservation of proline racemase activity” value ([11]; CTRL, freshly purified proteins) was 100.0%.

B2: TcPRAC: Trypanosoma cruzi proline racemase, B cell mitogen, used for immunization of mice (protein)
chain: GQEKLLFDQKYKIIKGEKKEKKKNQRANRREHQQKREIMRFKKSFTCIDMHTEGEAARIVTSGLPHIPGSNMAEKKAYLQENMDYLRRGIMLEPRGHDDMFGAFLFDPIEEGADLGMVFMDTGGYLNMCGHNSIAAVTAAVETGIVSVPAKATNVPVVLDTPAGLVRGTAHLQSGTESEVSNASIINVPSFLYQQDVVVVLPKPYGEVRVDIAFGGNFFAIVPAEQLGIDISVQNLSRLQEAGELLRTEINRSVKVQHPQLPHINTVDCVEIYGPPTNPEANYKNVVIFGNRQADRSPCGTGTSAKMATLYAKGQLRIGETFVYESILGSLFQGRVLGEERIPGVKVPVTKDAEEGMLVVTAEITGKAFIMGFNTMLFDPTDPFKNGFTLKQ
modifications: left off: small tags and cut ends
notes: Trypanosoma cruzi proline racemase, B cell mitogen, used for immunization of mice
In the case of B2, the “specific antibody responses directed to TcPRAC” value [12] is reported as “high levels of specific antibody responses” and the “immunoprotection against infectious challenge” value ([12]; challenge with live Trypanosoma cruzi) is reported as “high levels of immunoprotection”.

Source: patent US7556939B2, “Identification and characterization of racemases, definition of protein signatures, and a test for detecting D-amino acid and for screening molecules capable of inhibiting the activity of racemase, especially proline racemase” (Institut Pasteur, priority 2003, dated 2009)
